According to PMC12029982, “The Mechanism of a Novel Mitochondrial-Targeted Icaritin Derivative in Regulating Apoptosis of BEL-7402 Cells Based on the SIRT3 and CypD-Mediated ROS/p38 MAPK Signaling Pathway” (Molecules, 2025):
Entries after “also recorded” stand apart in the source; their conditions may differ.

Assays:
Assay type in all cases: cell-based, human
HEK293 = test: MTT assay, cytotoxicity to normal cell line
Experimental: Human cancer cell lines BEL-7402, A549, MCF-7, PC-3M, and normal renal cell line HEK293 were bought from the BeNa Culture Collection (Beijing, China). BEL7402, A549, and PC-3M were cultured in RPMI 1640 medium (Gibco, Carlsbad, CA, USA). MCF-7 and HEK293 were cultured in the DMEM medium (Gibco, CA, USA). The medium was supplemented with 10% fetal bovine serum (FBS) (CLARK, San Diego, CA, USA), 100 U/mL penicillin, and 0.1 mg/mL streptomycin (Beyotime, Nanjing, China). The cells were incubated in 5% CO2 at 37 °C.
The MTT assay was employed to assess the inhibitory effect of each compound on cell growth. A549, PC-3M, MCF-7, BEL-7402, and HEK293 cells in the logarithmic growth phase were seeded in 96-well culture plates at an inoculum density of 5 × 10^4 cells/mL. After overnight incubation at 37 °C in a 5% CO2 atmosphere, the cells fully adhered to the surface. Different concentrations of sample solutions (0, 3.125, 6.25, 12.5, 25, 50, 100 μmol/L) were added (100 μL) to treat the cells. After 48 h of drug treatment, 10 μL of a 5 mg/mL MTT solution was added to each well and incubated for 4 h at 37 °C. The supernatant was then discarded, and 150 μL of DMSO was added to dissolve the formazan. The mixture was shaken at room temperature for 15 min, and the absorbance (D) value was measured at 490 nm using a Microplate Reader (HBS-ScanY, Nanjing, China). The drug IC50 values were calculated using GraphPad Prism (v10.0). Each cell viability experiment was performed in triplicate.

[1] = tested on: mitochondria of BEL-7402 cells; test: HPLC analysis of accumulation in mitochondria; settings: 10 μM
Experimental: BEL-7402 cells were cultured in 100 mm Petri dishes. When the cell density reached 90%, the cells were treated with different drugs, all at the same concentration (ICT and Mito-ICT-4 were both set at 10 μM). After 9 h of drug treatment, intracellular mitochondria were isolated from the different drug-treated groups using a mitochondrial isolation kit (Beyotime, Nanjing, China). The mitochondria were resuspended in 200 μL of phosphate-buffered saline (PBS), and an equal volume of anhydrous dichloromethane was added. Ultrasonic extraction was performed three times, and the lower organic phase was collected. Dichloromethane was removed, and the sample was resuspended in 200 μL of 0.1% formic acid in methanol. A 20 μL sample was analyzed and quantified by HPLC. HPLC analysis was conducted using an ALLTECH 26-201 (Jerome, CA, USA) with a flow rate of 1 mL/min. The stationary phase was Agilent ZORBAX SB-C18 (250 mm × 4.6 mm, 5 μm, Santa Clara, CA, USA), and the mobile phase consisted of methanol-0.1% formic acid in water (80:20).

DDIT3 = test: Western blot; settings: vs blank control, p < 0.001
Experimental: (§1) Drug grouping and administration were performed as described in Section 2.6. After 48 h of incubation, the supernatant was discarded, and the cells were washed twice with pre-cooled PBS. A volume of 150 µL of RIPA lysis buffer (Solarbio, Beijing, China) was added and incubated on ice. After sufficient lysis, the supernatant was centrifuged, and the protein concentration was determined using a BCA kit (Thermo, Waltham, MA, USA). The SDS-PAGE gel system was chosen based on the molecular weight of the target proteins to perform electrophoresis. After electrophoresis, the processed samples were transferred to a membrane and incubated at room temperature for 2 h to block non-specific binding. After membrane transfer, the membranes were incubated with primary antibodies against CypD (Proteintech Group, Wuhan, China), SIRT3 (Abcam, Cambridge, UK), P-MKK6 (Bioss, Beijing, China), P-P38 (Bioss, Beijing, China), DDIT3 (Bioss, Beijing, China), Cleaved-caspase-3 (Abcam, Cambridge, UK), and β-actin (ZSGB-BIO, Beijing, China) (1:1000) at 4 °C overnight. After primary antibody binding, the membranes were incubated with the corresponding secondary antibody (ZSGB-BIO, Beijing, China) (1:3000) at room temperature for 1 h. Immunoblot bands were detected using an enhanced chemiluminescence system (Analytik Jena AG, Jena, Germany). The bands were analyzed using ImageJ (v1.8.0) software.

P-P38 = test: Western blot; settings: with increasing concentrations vs blank control, p < 0.001
Experimental: as §1

SIRT3 = test: Western blot; settings: 48 h
Experimental: as §1

Cl-caspase-3 = test: Western blot; settings: 48 h
Experimental: as §1

CypD = test: Western blot; settings: 48 h
Experimental: as §1

P-MKK6 = test: Western blot; settings: with increasing concentrations vs blank control, p < 0.001
Experimental: as §1

BEL-7402 cells = test: Calcein AM/CoCl2 probe, MPTP opening; settings: increasing drug concentration, 24 h
Experimental: Drug grouping and administration were performed as described in Section 2.5. After 24 h of incubation, 500 μL of staining solution (containing 2 μM Calcein AM and 5 mM CoCl2) (Aladdin, Shanghai, China) was added to each well. The cells were stained for 30 min at 37 °C and protected from light. After staining, the solution was discarded, and the cells were washed twice with PBS. The cells were then observed under an inverted fluorescence microscope.

[2] = low-concentration group vs control, p < 0.01

COc1ccc(-c2oc3c(CC=C(C)C)c(OC(=O)CCCCCCCCCC[P+](c4ccccc4)(c4ccccc4)c4ccccc4)cc(O)c3c(=O)c2O)cc1 [Mito-ICT-4]
IC50 (HEK293; Homo sapiens, HEK293, MTT, 48 h drug exposure, mean ± SD, normal cell line): 67.1 ± 2.09 µM | reduction compared to ICT (cytotoxicity in HEK293 cells) (HEK293; from IC50 values in HEK293): 55.4% | fate after entering the mitochondria [1]: hydrolysis to ICT; also recorded: hydrolyzed to ICT | accumulation in mitochondria relative to ICT ([1]; 9 h): approximately 2.5 times | expression level of DDIT3 (DDIT3): increased significantly | expression level of P-P38 (P-P38): decreased significantly | SIRT3 expression levels (SIRT3; [2]): decreased | SIRT3 expression levels (SIRT3; medium- and high-concentration groups vs control, p < 0.001): significantly reduced | expression of Cl-caspase-3 (Cl-caspase-3; high-concentration group vs control, p < 0.001): significantly higher | expression of Cl-caspase-3 (Cl-caspase-3; [2]): elevated | CypD protein expression (CypD; [2]): elevated | CypD protein expression (CypD; medium and high-concentration groups vs control, p < 0.001): significantly higher | expression level of P-MKK6 (P-MKK6): decreased significantly | morphology with Calcein AM/CoCl2 (MPTP opening) (BEL-7402 cells): transitioned from oval to round and, ultimately, to an irregular shape
